The results in this text go back to patent publication US9233978B2, “6-fused heteroaryldihydropyrimidines for the treatment and prophylaxis of hepatitis B virus infection” (Hoffmann-La Roche Inc., priority 2014, dated 2016).

Molecules are shown by their SMILES. pEC50: −log10 of the molar value. Converted amounts (≈) assume the structure as drawn.

One data set concerns HBV. Nature of the data set: Anti-HBV activity in vitro, HepG2.2.15 cells, extracellular HBV DNA by qPCR. The format is cell-based. The following applies: Hepatitis B virus, HepG2.2.15, 120 h, HepG2.2.15 cells; HBV replication inhibited by 50%, extracellular HBV DNA by qPCR; five days after compound treatment; read-out: EC50. In short, it runs like this:
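Extracellular HBV DNA in culture supernatant was measured by qPCR after nucleic acid extraction. The supernatant came from constitutively replicating HepG2.2.15 cells exposed for five days to half-log-diluted compounds, with DMSO at 0.5% final. Cells had been plated overnight at 37 °C beforehand.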
For orientation: Quantitative PCR measures a nucleic acid by following its amplification.

Data set [1] is described as follows: Human microsomal metabolic stability. The format is in vitro ADME. The following applies: human microsomes 0.5 mg/mL, 1 μM test compound, NADPH, 37° C., pH 7.4, 0-30 minutes. On the procedure:
Human Microsomes (BD Gentest) were preincubated with test compound for 10 minutes at 37° C. in 100 mM phosphate buffer, pH 7.4. The reactions were initiated by adding NADPH or NADPH regenerating system to give a final incubation volume of 400 μL. For NADPH system, the final incubations contained 1 μM test compound, 0.5 mg/mL liver microsomal protein, 1 mM NADPH in 100 mM phosphate buffer, pH 7.4. For the NADPH regenerating system, the final incubations contained 1 μM test compound, 0.5 mg/mL liver microsomal protein, 3 mM glucose 6-phosphate, 1 mM NADP, 3 mM MgCl2 and 0.05 mg/mL glucose 6-phosphate dehydrogenase in 100 mM phosphate buffer, pH 7.4. After incubation times of 0, 3, 6, 9, 15 and 30 minutes at 37° C., 1 sample was obtained from each time point and 50 μL of each sample was removed and transferred to 150 μL of methanol solution which was maintained at 4° C. and contained 2 μM tolbutamide as internal standard. Following precipitation and centrifugation, the amount of compound remaining in the samples were determined by LC-MS/MS. Controls of no NADPH or no NADPH regenerating system at zero and 30 minutes were also prepared and analyzed.

The nature of another data set: Lysa solubility. The following applies: 0.05 M phosphate buffer (pH 6.5); for solubility thermodynamic: phosphate buffer, pH 6.5, aqueous buffer, thermodynamic from solid. It counts as physicochemical. The protocol: Samples were prepared in duplicate from 10 mM DMSO stock solutions. After evaporation of DMSO with a centrifugal vacuum evaporator, the residue was solved in 0.05 M phosphate buffer (pH 6.5), stirred for one hour and shook for two hours. After one night, the solution was filtered using a microtiter filter plate. Then the filtrate and its 1/10 dilution were analyzed by direct UV measurement or by HPLC-UV. […] The results were in μg/mL. In case the percentage of sample measured in solution after evaporation divided by the calculated maximum of sample amount was over 80%, the solubility was reported as higher than this value.

For orientation: pEC50 means −log10 of the EC50, conventionally taken in molar units. By solubility (thermodynamic) is commonly meant solubility found after equilibrating the solid with the medium.

Turning to `COC(=O)C1=C(CN2CCN3C(=O)N(C(C)(C)CC(=O)O)C[C@@H]3C2)NC(c2nccs2)=N[C@H]1c1ccc(F)cc1Cl` [Example 33, 3-[(8aS)-7-[[(4R)-4-(2-chloro-4-fluoro-phenyl)-5-methoxycarbonyl-2-thiazol-2-yl-1,4-dihydropyrimidin-6-yl]methyl]-3-oxo-5,6,8,8a-tetrahydro-1H-imidazo[1,5-a]pyrazin-2-yl]-3-methyl-butanoic acid], the pEC50 in the data set with HBV is 7.52. In addition, the “Human Microsomal Clearance” value in data set [1] was 2.5 mL/min/kg. Besides, in the data set “Lysa solubility”, the thermodynamic solubility was more than 748 µg/mL.

Consider `COC(=O)C1=C(CN2CCN3C(=O)N(C(C)C)C[C@H]3[C@@H]2C(=O)O)NC(c2nccs2)=N[C@H]1c1ccc(F)c(F)c1C` (single isomer, unassigned) [Example 85A], for which, in the data set on HBV, the pEC50 was 6.59. Also, the “Human Microsomal Clearance” value in data set [1] is given as 4.9 mL/min/kg. The “Lysa” value in “Lysa solubility” is more than 660 µg/mL.

In the case of `CCOC(=O)C1=C(CN2CCN3C(=O)N(c4ccccc4C(=O)O)C[C@@H]3C2)NC(c2nccs2)=N[C@H]1c1cccc(F)c1Cl` [Example 28, (R)-6-[(S)-2-(2-Carboxy-phenyl)-3-oxo-hexahydro-imidazo[1,5-a]pyrazin-7-ylmethyl]-4-(2-chloro-3-fluoro-phenyl)-2-thiazol-2-yl-1,4-dihydro-pyrimidine-5-carboxylic acid ethyl ester], the pEC50 in the data set with HBV was 7.52. In addition, the “Human Microsomal Clearance” value in data set [1] was 4.4 mL/min/kg. The same molecule returned a solubility (thermodynamic) in “Lysa solubility” of 337 µg/mL (≈ 527 µM).

Take `COC(=O)C1=C(CN2CCN3C(=O)N([C@H]4C[C@H](C(=O)O)C4)C[C@@H]3C2)NC(c2nccs2)=N[C@H]1c1ccc(F)cc1Cl` [Example 39, 3-[(2S,8aR)-7-[[(4R)-4-(2-chloro-4-fluoro-phenyl)-5-methoxycarbonyl-2-thiazol-2-yl-1,4-dihydropyrimidin-6-yl]methyl]-3-oxo-5,6,8,8a-tetrahydro-1H-imidazo[1,5-a]pyrazin-2-yl]cyclobutanecarboxylic acid]: the negative logarithm of the EC50 (pEC50) in the data set on HBV is 7.52. In data set [1], the “Human Microsomal Clearance” value was 0.4 mL/min/kg. Moreover, in the data set “Lysa solubility”, the thermodynamic solubility was more than 770 µg/mL.

As for `CCOC(=O)C1=C(CN2CCN3C(=O)N(CC(OC)C(=O)O)C[C@@H]3C2)NC(c2nccs2)=N[C@H]1c1cccc(F)c1Cl` (stereo partly drawn) [Example 78, 3-[(8aS)-7-[[(4R)-4-(2-chloro-3-fluoro-phenyl)-5-ethoxycarbonyl-2-thiazol-2-yl-1,4-dihydropyrimidin-6-yl]methyl]-3-oxo-5,6,8,8a-tetrahydro-1H-imidazo[1,5-a]pyrazin-2-yl]-2-methoxy-propanoic acid], the pEC50 with HBV was 6.41. The “Human Microsomal Clearance” value in data set [1] is on record as 6.7 mL/min/kg. Also, the thermodynamic solubility in “Lysa solubility” is more than 793 µg/mL.

Consider `COC(=O)C1=C(CN2CCN3C(=O)N(C(C)(C)CC(=O)O)C[C@@H]3C2)NC(c2nccs2)=N[C@H]1c1ccc(F)c(F)c1C` [Example 37, 3-[(8aS)-7-[[(4S)-4-(3,4-difluoro-2-methyl-phenyl)-5-methoxycarbonyl-2-thiazol-2-yl-1,4-dihydropyrimidin-6-yl]methyl]-3-oxo-5,6,8,8a-tetrahydro-1H-imidazo[1,5-a]pyrazin-2-yl]-3-methyl-butanoic acid], for which the pEC50 in the data set on HBV is 7.77. Besides, in data set [1], the “Human Microsomal Clearance” value turned out to be 2.5 mL/min/kg. For the same molecule, the thermodynamic solubility in the data set “Lysa solubility” turned out to be 422 µg/mL (≈ 700 µM).

Take `COC(=O)C1=C(CN2CCN3C(=O)N(CCCCC(=O)O)C[C@@H]3C2)NC(c2nccs2)=N[C@H]1c1ccc(F)cc1Cl` [Example 80, 5-[(8aS)-7-[[(4R)-4-(2-chloro-4-fluoro-phenyl)-5-methoxycarbonyl-2-thiazol-2-yl-1,4-dihydropyrimidin-6-yl]methyl]-3-oxo-5,6,8,8a-tetrahydro-1H-imidazo[1,5-a]pyrazin-2-yl]pentanoic acid]: the pEC50 in the data set with HBV was 7.49. Further, the “Human Microsomal Clearance” value in data set [1] turned out to be 8.3 mL/min/kg. Moreover, the thermodynamic solubility in “Lysa solubility” is more than 616 µg/mL.
